# Experimental data published in patent publication US12485124B2, “Methods for treating alzheimer disease and for reducing amyloid beta formation” (ARIBIO CO., LTD., priority 2019, dated 2025).
# Assays:
# [1] = system: LC3B, p62, APP, Aβ1-42 in Retinoic Acid Differentiated SH-SY5Y Human Neuroblastoma Cell; experiment: Western Blot of Autophagy Markers LC3B and p62; assay type: cell-based; conditions: 3-MA 5 mM together with the present invention; Aβ1-42 Oligomer 1 μM
# Experimental: To extract the proteins, the cells were treated with RIPA Lysis Buffer (Bio-Rad), homogenized, and centrifuged (14,000 rpm, 10 minutes, 4° C.) to obtain the supernatant. 5% Stacking Gel (DW, 30% Acrylamide: Bisacrylamide, 1M Tris pH 6.8, 10% SDS, TEMED, 10% Ammonium Persulfate) and 12% Separating Gel (DW, 30% Acrylamide: Bisacrylamide, 1.5M Tris pH 8.8, 10% SDS, TEMED, 10% Ammonium Persulfate) were used for SDS-PAGE. Supernatant obtained by centrifugation was mixed with 4× Lacmmli Buffer (Bio-Rad) in 3:1 ratio and boiled at 95° C. for 10 minutes to denature the proteins. The mixture was cooled in an ice bath for 10 minutes and span down. Protein Size Marker (Bio-Rad) and each sample were added to Stacking Gel Well prepared in Mini-Protein II Dual-Slab Apparatus (Bio-Rad) and electrophoresed at 150 volt till all are precipitated to the bottom. Polyvinylidene Difluoride (PVDF) Membrane was moistened with methanol to activate and washed with Transfer Buffer (190 mM Glycine, 50 mM Tris-Base, 0.05% SDS, 20% Methanol). Whatman 3M Paper moistened with Transfer Buffer was stacked in Mini Trans-Bolt Cell (Bio-Rad) and run electricity at 200 mA for 60 minutes to deposit the membrane. After the deposition, the membrane was blocked with 5% Skim milk solution (in TBS-T: 10 mM Tris-Base pH 8.0, 150 mM NaCl, 0.1% Tween-20) on a Platform Shaker for 60 minutes. The primary antibodies were diluted in 5% Skim Milk in an optimum concentration for each, put on platform shaker at 4° C. for 16 hours. […] Finally, Membrane was added to SuperSignal™ West Femto Maximum Sensitivity Substrate (Thermo Scientific™) and expressed the color properly before the membrane was scanned using image analysis system and the amount of protein was calculated using Image J Software (NIH, USA). […]
# BACE-1 and Cathepsin B = conditions: reported in J Gerontol a Biol Sci Med Sci 2015; J Urol. 2016; cited from earlier work
SMILES,APP formation and Aβ1-42 accumulation [1],Autophagic Flux (LC3B-II/I Ratio) [1],expression of p62 [1],BACE-1 and Cathepsin B expression (BACE-1 and Cathepsin B)
"Cn1cnc(N)c2ncnc1-2 [3-MA, 3-Methyladenine]",APP formation and Aβ1-42 accumulation increased,Autophagic Flux (LC3B-II/I Ratio) increased by the present invention was reduced,expression of p62 reduced by the present invention increased,–
CCCc1nn(C)c2c(=O)[nH]c(-c3cc(S(=O)(=O)N4CCN(C)CC4)ccc3OCC)nc12 [Sildenafil],–,–,–,suppressed BACE-1 and Cathepsin B expression
